# Reference: patent US11471478B2, “Use of cyclodextrins in diseases and disorders involving phospholipid dysregulation” (priority 2017, dated 2022)
# “And” between values parts separate entries of the source, which are not always exact repeats. Identical values can stand only once. Like-named read-outs stand apart in the source and are kept apart here.
# Assays:
# [1] = 2.1% α-CD added to Western diet; cited from earlier work
# [2] = system: rats; conditions: cited from earlier work
# [3] = cited from earlier work
# [4] = system: rats; conditions: cited from earlier work; remark: listed apart in the source
# [5] = system: erythrocytes; conditions: cited from earlier work
# [6] = system: whole blood; conditions: cited from earlier work
# [7] = cited from earlier work; for Permitted Daily Exposure (PDE) threshold, parenteral: CHMP 2014; for Permitted Daily Exposure (PDE) threshold, parenteral, revised: Oct. 9, 2017
# [8] = system: keratinocytes; conditions: cited from earlier work
# [9] = system: fibroblasts of lysosomal storage diseases; conditions: about 6 mM α-CD, about 8 mM HP-β-CD; cited from earlier work
# [10] = system: erythrocytes; conditions: cited from earlier work; remark: listed apart in the source
# [11] = cited from earlier work; remark: listed apart in the source
# [12] = system: rats; conditions: cited from earlier work; remark: listed apart in the source
# [13] = cited from earlier work; remark: listed apart in the source
# [14] = system: rats; conditions: s.c. single dose 0.100 g/kg; cited from earlier work
# [15] = system: mice/rats; conditions: in vivo; cited from earlier work
# [16] = system: BBB; conditions: cited from earlier work; for Transport across BBB: 2 h
# [17] = rats, suppositories containing triglycerides (Witepsol H5); cited from earlier work
# [18] = system: MDA-MB-231 breast cancer cells; experiment: NSG mice injected with human MDA-MB-231 breast cancer cells; format: in vivo
# Protocol: NSG mice (NOD.Cg-Prkdcscid Il2rgtm1Wjl/SzJ, strain #005557 (10 wk old) were obtained from Jackson Laboratories (Bar Harbor, Me.), housed in isolated quarters, and fed with autoclaved water and food.
# An MDA-MB-231 cell line was obtained (ATCC) and kept frozen in liquid nitrogen. Upon start of culture, cells were thawed (1.5 min in 37° C. water) and transferred to DMEM/F-12 supplemented with 5% FBS, 2 mM L-glutamine, 1 mM sodium pyruvate, and 0.02 mM non-essential amino acids. Cells were grown to several millions in 60 mm dishes at 70-80% confluence. Before injection, cells were briefly rinsed twice in PBS followed by Versene (EDTA, Invitrogen) and placed on ice with excess phosphate-buffered saline and phenol red-free matrigel basement membrane extract to a concentration of about 15 mg/mL matrigel. 100 μL cell mixture (20,000 cells or saline only) were injected into the lactiferous duct of the 3rd or 4th mammary glands under brief isofluorane anesthesia. Groups of 15 mice each were injected IP with 800 mg/kg of HP-α-CD, HP-β-CD per week (over four days, Mon, Tue, Thu, Fri), or saline (control) for six weeks. Size of the primary tumor was measured weekly.
# Breast tissue were palpated and measured twice a week with a micro-metric analytical device scaled to 1 mm precision. Mice were weighed weekly on a digital scale (0.1 g precision).
# At the end of the study period, mice were anaesthetized with isofluorane with 1× phosphate-buffered saline (PBS) and subsequently with 4% formaldehyde in PBS. Tissue from lung and liver were removed and fixated in formalin for microscopic examination. Metastases were visualized and counted by tissue embedding in paraffin and sectioning with immunohistochemistry and histological stain (H&E) and immunostained with anti-HLA antibody. After blocking for 1 h with BSA (5%, frac V), the anti-HLA was incubated at 4° C. overnight, washed for 1 h in PBS, then incubated with biotinylated anti-mouse IgG for 1 h at room temperature. After washing with PBS, metastases were detected on the slide using Envision (Dako).
# After blood collection, whole blood samples were centrifuged (at 10,000 m/s^2 for 15 min and then at 100,000 m/s^2 for 10 min), and plasma was isolated. The samples were stored at −80° C. until analysis.
# Prior to analysis (30 min), samples and assay reagents were equilibrated to room temperature. The samples were run at a 1:4 dilution and quantified in duplicate using a multi-plex mouse panel for quantification of IL-1β, IL-18, IL-6, IL-8, IL-17A, and GM-CSF (Bio-Plex Pro assays, Bio-Rad Laboratories) on a Luminex Bio-Plex 200 System (Bio-Rad Laboratories).
# [19] = cited from earlier work; remark: listed apart in the source
# [20] = system: cats; conditions: doses of 4-8 g/kg; cited from earlier work
# [21] = long-term parenteral, 200 mg/kg; cited from earlier work
# [22] = cited from earlier work; remark: listed apart in the source
# [23] = system: MDA-MB 231 and MCF-7 human breast epithelial cell lines; experiment: Wound healing / gap closure migration assay; format: cell-based; conditions: 2 h treatment, MDA-MB 231 and MCF-7
# Protocol: Published results have shown that β-CD inhibits human MDA-MB 231 cell migration (Guerra F S, Sampaio LdS, et al. (2016) Translational Medicine Communications 1:3). This inhibition was attributed to the ability of β-CD to “deplete cholesterol”. β-CD, however, depletes also phospholipids. […] Cells were cultured in 24-well culture plates (Cytoselect CBA-120, 0.9 mm wound healing/gap closure migration assay) for 24 h with wound healing insert in place. Cells were then treated for 2 h with HP-β-CD, HP-α-CD, or control. Protocol: Warm up the 24-well plate (CBA-120, Cell BioLabs Inc.) with 0.9 mm CytoSelect Wound Healing Inserts at room temperature for 10 min. Using sterile forceps, orient the desired number of inserts in the plate wells with their “wound field” aligned in the same direction. […] Add 500 μL of cell suspension to each well by carefully inserting the pipette tip through the open end at the top of the insert. For optimal cell dispersion, add 250 μL of cell suspension to either side of the open ends at the top of the insert. Incubate cells in a cell culture incubator for 12-24 hours. Carefully remove the insert from the well to begin the wound healing assay. Use sterile forceps to grab and lift the insert slowly from the plate well. Slowly aspirate and discard the media from the wells. Wash wells with media to remove dead cells and debris. Finally, add media to wells to keep cells hydrated. Repeat wash if wells still have debris or unattached cells. When washing is complete, add media with FBS and/or compounds to continue cell culture and wound healing process. Agents that inhibit or stimulate cell migration can be added directly to the wells. Incubate cells in a cell culture incubator (2 hours) and then wash cells with PBS and then add fresh media without compounds. Incubate 12-24 hours before wash and fixing. Remove the fixation solution and add 400 μL of Cell Stain Solution to each well. Allow the stain to incubate with the cells for 15 minutes at room temperature. Aspirate and discard the solution. Carefully wash each stained well 3× with deionized water. Discard washes and allow cells to dry at room temperature. Cells that migrated into the wounded area or protruded from the border of the wound were visualized and photographed under an inverted microscope. Determine the surface area of the defined wound area: Total Surface Area=0.9 mm×length. Determine the surface area of the migrated cells into the wound area: Migrated Cell Surface Area=length of cell migration (mm)×2× length. Percent Closure (%)=Migrated Cell Surface Area/Total Surface Area×100 (see FIG. 36)
# [24] = system: Tg19959 mice; conditions: four months of subcutaneous administration; cited from earlier work
# [25] = parenteral, 12 g twice daily for 15 days; cited from earlier work
# [26] = system: SwN2a cells; conditions: cited from earlier work
# [27] = system: children with NPC; conditions: doses of up to 1000 mg/kg/d; cited from earlier work
# [28] = IP 800 mg/kg per week for six weeks
compound,measurement,setting,value
"OC[C@H]1O[C@@H]2O[C@H]3[C@H](O)[C@@H](O)[C@@H](O[C@H]4[C@H](O)[C@@H](O)[C@@H](O[C@H]5[C@H](O)[C@@H](O)[C@@H](O[C@H]6[C@H](O)[C@@H](O)[C@@H](O[C@H]7[C@H](O)[C@@H](O)[C@@H](O[C@H]1[C@H](O)[C@H]2O)O[C@@H]7CO)O[C@@H]6CO)O[C@@H]5CO)O[C@@H]4CO)O[C@@H]3CO [α-CD, alpha-cyclodextrin]",decrease of plasma phospholipids,[1],17.5%
same,LD50 with bolus i.v. injections,[2],1000 mg/kg
same,found in urine within 6-8 h post oral administration,[3],1.6% and 2.0%
same,"i.v. toxicity, 1 g/kg daily",[4]; 1 g/kg daily,1 died @ 2 d
same,reduction of phospholipids,"[5]; 10 mM, FIG. 3",30%
same,extraction of cholesterol,[5],negligible even at hemolytic concentrations
same,whole blood TD50,[6],11 mM/L
same,"Permitted Daily Exposure (PDE) threshold, parenteral",[7],0.02 mg/kg/day
same,"Permitted Daily Exposure (PDE) threshold, parenteral, revised",[7],200 mg/kg/day
same,caspase-dependent apoptotic cell death,[8],not
same,reduction of lysosomal storage,[9],more effective in reducing lysosomal storage than about 8 mM HP-β-CD
same,hemolytic activity,[10]; comparison between cyclodextrins,lower than that of both β-CD and HP-β-CD
same,IC50,[10]; read-out: hemolytic IC50,16 mM
same,excreted after i.v. unchanged in urine,[11],~90%
same,Nephrosis/Death,[12]; s.c. daily doses 0.100 g/kg,0.100 no nephrosis
same,Nephrosis,[12]; s.c. daily doses 1.000 g/kg,"1.000 all had severe nephrosis,"
same,Death,[12]; s.c. up to 7 daily doses of 1.000 g/kg,one rat died (after 2 days)
same,half-life (t1/2) after i.v. in rats,[13],25 min
same,oral absorption in rats,[13],2-3%
same,Nephrosis (light microscopy),[14],0.100 no changes
same,LD50 i.v./i.p. in mice/rats,[15],500 to 1000 mg/kg
same,Transport across BBB,[16]; 0.5 mM,21.5 (0.5 mM) %
same,toxicity on the BBB model,[16],more toxic
"CC(O)COC[C@H]1O[C@@H]2O[C@H]3[C@H](O)[C@@H](O)[C@@H](O[C@H]4[C@H](O)[C@@H](O)[C@@H](O[C@H]5[C@H](O)[C@@H](O)[C@@H](O[C@H]6[C@H](O)[C@@H](O)[C@@H](O[C@H]7[C@H](O)[C@@H](O)[C@@H](O[C@H]8[C@H](O)[C@@H](O)[C@@H](O[C@H]1[C@H](O)[C@H]2O)O[C@@H]8COCC(C)O)O[C@@H]7COCC(C)O)O[C@@H]6COCC(C)O)O[C@@H]5COCC(C)O)O[C@@H]4COCC(C)O)O[C@@H]3COCC(C)O (stereo partly drawn) [HP-β-CD, hydroxypropyl-beta-cyclodextrin]",rectal absorption,[17],26%
same,"i.v. toxicity, 1 g/kg daily","[4]; rat, in vivo, iv",no signs ^6)
same,whole blood TD50,[6],9 mM/L
same,"Tumor volume, median",[18]; [28],378 mm3
same,effect on tumor volume,[18]; [28],effective
same,"plasma cytokines (IL-1β, IL-18, IL-6, IL-8, IL-17A, GM-CSF) versus Vehicle",[18]; conventional 0.05 level,significant in four other markers (not in IL-8)
same,mice that did not develop lung metastases,[18]; groups of 15 mice,3 mice
same,mice who died,[18]; groups of 15 mice,two
same,"i.v. toxicity, 500 mg/kg",[19],no damage
same,"Permitted Daily Exposure (PDE) threshold, parenteral",[7],10 mg/kg/day
same,"Permitted Daily Exposure (PDE) threshold, parenteral, revised",[7],200 mg/kg/day
same,caspase-dependent apoptotic cell death,[8],not
same,hearing,[20],causes permanent hearing loss
same,bone mineral density (BMD),[21],decrease bone mineral density (BMD)
same,Solubility in water,[22],>600 g/l and >600 ^2) g/l
same,excreted after i.v. unchanged in urine,[11],~90%
same,half-life (t1/2) after i.v. in rats,[13],20 min
same,oral absorption in rats,[13],≤3%
same,"cell migration / wound closure, concentration dependence",[23],migration decreased with higher concentration
same,spatial learning and memory deficits,[24],significantly improved spatial learning and memory deficits
same,side effects,[25],No side effects were observed
same,LD50 i.v./i.p. in mice/rats,[15],10000 mg/kg
same,Transport across BBB,[16]; 1 mM,6.6 (1 mM) %
same,BBB breakdown,[16],2.5 mM
same,toxicity on the BBB model,[16],similarly safe
same,level of membrane cholesterol,[26],reduced
same,levels of Aβ42,[26],dramatically lowered
same,tolerability,[27],well tolerated
